We go through 18 molecules from patent publication US20230011869A1 (Hoffmann-La Roche Inc., priority 2018, published 2023).

This assay has as its system Acinetobacter baumannii ATCC17978. The experiment in a line: Antimicrobial susceptibility testing: 90% growth inhibitory concentration (IC90) determination, Iso-Sensitest broth. The format is cell-based. As for the experimental part:
Antimicrobial Susceptibility Testing:
90% Growth Inhibitory Concentration (IC90) Determination
The in vitro antimicrobial activity of the compounds was determined according to the following procedure:
The assay used a 10-points Iso-Sensitest broth medium to measure quantitatively the in vitro activity of the compounds against Acinetobacter baumannii ATCC17978 and Acinetobacter baumannii ATCC17961.
Microtiter plates were incubated at 35±2° C.
Bacterial cell growth was determined with the measurement of optical density at λ=600 nm each 20 minutes over a time course of 16 h. Growth inhibition was calculated during the logarithmic growth of the bacterial cells with determination of the concentration inhibiting 50% (IC50) and 90% (IC90) of the growth.

The mark [1] stands for this setting: Acinetobacter baumannii, ATCC17978, 16 h, read-out: ATCC17978 IC90, 90% growth inhibitory concentration, Acinetobacter baumannii ATCC17978, Iso-Sensitest broth, OD 600 nm over 16 h.
The mark [2] stands for this setting: 90% growth inhibitory concentration, Acinetobacter baumannii ATCC17978, Iso-Sensitest broth, OD 600 nm over 16 h, read-out: ATCC17978 IC90.

Counter-ions that a name gives are not always drawn. Like-named read-outs stand apart in the source and are kept apart here.

For `Cc1cc(Nc2nccn3c(-c4ccc(OC(F)F)cc4)cnc23)ccc1C(=O)N1CCN(C(=O)NCCN(C)C)CC1` [Example 520, 4-[4-[[3-[4-(difluoromethoxy)phenyl]imi-dazo[1,2-a]pyrazin-8-yl]amino]-2-methylbenzoyl]-N-[2-(dimethylamino)ethyl]pipera-zine-1-carboxamide], the IC90 under setting [1] amounted to 310 nM.

In the case of `COc1ccc(-c2cnc3c(Nc4ccc(C(=O)N5CCN(CCOCCO)CC5)c(C)c4)nccn23)cc1F` [Example 411, [4-[[3-(3-fluoro-4-methoxyphenyl)imidazo[1,2-a]pyrazin-8-yl]amino]-2-methylphenyl]-[4-[2-(2-hydroxyethoxy)ethyl]pipera-zin-1-yl]methanone], the IC90 under setting [2] was determined as 720 nM.

Take `Cc1cc(Nc2nccn3c(-c4ccc(OC(F)F)cc4)cnc23)ccc1C(=O)N1CCN(C(=O)CN(C)CC(=O)O)CC1` [Example 281, 2-[[2-[4-[4-[[3-[4-(difluoromethoxy)phenyl]imi-dazo[1,2-a]pyrazin-8-yl]amino]-2-methylbenzoyl]piperazin-1-yl]-2-oxoethyl]-methylamino]acetic acid]: under setting [1], the IC90 is 4700 nM.

In the case of `Cc1cc(Nc2nccn3c(-c4ccc(OC(F)F)cc4)cnc23)ccc1C(=O)N1CCN(C(=O)C2(F)CCNCC2)CC1` [Example 487, [4-[[3-[4-(difluoromethoxy)phenyl]imi-dazo[1,2-a]pyrazin-8-yl]amino]-2-methylphenyl]-[4-(4-fluoropiperidine-4-carbonyl)piperazin-1-yl]methanone; hydrochloride], the IC90 (read-out: ATCC17978 IC90, 90% growth inhibitory concentration, Acinetobacter baumannii ATCC17978, Iso-Sensitest broth, OD 600 nm over 16 h, hydrochloride) worked out at 220 nM.

For the molecule `CCOC(=O)NC1CCN(C(=O)c2ccc(Nc3nccn4c(-c5ccc(OC(F)F)cc5)cnc34)cc2C)CC1` [Example 11, ethyl (1-(4-((3-(4-(difluoromethoxy)phenyl)imidazo[1,2-a]pyrazin-8-yl)amino)-2-methylbenzoyl)piperidin-4-yl)carbamate], the IC90 under setting [2] was 580 nM.

Take `Cc1cc(Nc2nccn3c(-c4ccc(OC(F)F)cc4)cnc23)ccc1C(=O)N1CCN(C(=O)[C@@H](N)CCCN)CC1` [Example 513, (2S)-2,5-diamino-1-[4-[4-[[3-[4-(difluoromethoxy)phenyl]imi-dazo[1,2-a]pyrazin-8-yl]amino]-2-methylbenzoyl]piperazin-1-yl]pentan-1-one; hydrochloride]: the IC90 under setting [1] is 610 nM.

On to `Cc1cc(Nc2nccn3c(-c4ccc(OC(F)F)cc4)cnc23)ccc1C(=O)N1CCC(Cc2cnc[nH]2)CC1` [Example 72, (4-((1H-imidazol-4-yl)methyl)piperidin-1-yl)(4-((3-(4-(difluoromethoxy)phenyl)imidazo[1,2-a]pyrazin-8-yl)amino)-2-methylphenyl)methanone], for which, under setting [2], the IC90 came out at 260 nM.

Consider `CNC1CCN(C(=O)c2ccc(Nc3nccn4c(-c5ccc(OC(F)F)cc5)cnc34)cc2C)CC1` [Example 374, [4-[[3-[4-(difluoromethoxy)phenyl]imi-dazo[1,2-a]pyrazin-8-yl]amino]-2-methylphenyl]-[4-(methylamino)piperidin-1-yl]methanone; hydrochloride], for which the IC90 under setting [1] is 1700 nM.

Regarding `Cc1cc(Nc2nccn3c(-c4ccc(OC(F)F)cc4)cnc23)ccc1C(=O)N1CCC(C(=O)N(C)CCN2CCNC(=O)C2)CC1` [Example 404, 1-[4-[[3-[4-(difluoromethoxy)phenyl]imi-dazo[1,2-a]pyrazin-8-yl]amino]-2-methylbenzoyl]-N-methyl-N-[2-(3-oxopiperazin-1-yl)ethyl]piperidine-4-carboxamide], the IC90 under setting [1] amounted to 470 nM.

`Cc1cc(Nc2nccn3c(-c4ccc(OC(F)F)cc4)cnc23)ccc1C(=O)N1CCC(C(=O)N2CCOC(CN)C2)CC1` (stereo not drawn) [Example 43, (4-(2-(aminomethyl)morpholine-4-carbonyl)piperidin-1-yl)(4-((3-(4-(difluoromethoxy)phenyl)imidazo[1,2-a]pyrazin-8-yl)amino)-2-methylphenyl)methanone hydrochloride]: the IC90 under setting [1] turned out to be 220 nM.

Regarding “1-[4-[[3-[4-(cyanomethoxy)-2,3-difluoro-phenyl]imidazo[1,2-a]pyrazin-8-yl]amino]-2-methyl-benzoyl]-N-methylsulfonyl-piperidine-4-carboxamide trifluoroacetate [Example 100]”, the IC90 under setting [2] was found to be 1600 nM.

In the case of `Cc1cc(Nc2nccn3c(-c4ccc(OC(F)F)cc4)cnc23)ccc1C(=O)N1CCN(C(=O)[C@@H](N)CC(=O)O)CC1` [Example 448, (3S)-3-amino-4-[4-[4-[[3-[4-(difluoromethoxy)phenyl]imi-dazo[1,2-a]pyrazin-8-yl]amino]-2-methylbenzoyl]piperazin-1-yl]-4-oxobutanoic acid; hydrochloride], the IC90 under setting [1] worked out at 2200 nM.

For `CCc1cc(Nc2nccn3c(-c4ccc(OCC#N)c(F)c4F)cnc23)ccc1C(=O)N1CCC(C(=O)N2CCN[C@H](CO)C2)CC1` [Example 541, 2-[4-[8-[3-ethyl-4-[4-[(3S)-3-(hydroxymethyl)piperazine-1-carbonyl]piperidine-1-carbonyl]anilino]imidazo[1,2-a]pyrazin-3-yl]-2,3-difluorophenoxy]acetonitrile; 2,2,2-trifluoroacetic acid], the IC90 under setting [1] worked out at 96 nM.

With `COc1ccc(-c2cnc3c(Nc4ccc(C(=O)N5CCC(C(=O)N6CC[C@@H](N)[C@@H](O)C6)CC5)c(C)c4)nccn23)cc1F` [Example 392, [4-[(3S,4R)-4-amino-3-hydroxypiperidine-1-carbonyl]piperidin-1-yl]-[4-[[3-(3-fluoro-4-methoxyphenyl)imidazo[1,2-a]pyrazin-8-yl]amino]-2-methylphenyl]methanone; 2,2,2-trifluoroacetic acid], the IC90 under setting [1] stood at 340 nM.

Take `Cc1cc(Nc2nccn3c(-c4ccc(OC(F)F)cc4)cnc23)ccc1C(=O)N1CCN(C(=O)[C@@H](N)[C@@H](C)O)CC1` [Example 527, (2S,3R)-2-amino-1-[4-[4-[[3-[4-(difluoromethoxy)phenyl]imi-dazo[1,2-a]pyrazin-8-yl]amino]-2-methylbenzoyl]piperazin-1-yl]-3-hydroxybutan-1-one; hydrochloride]: the IC90 under setting [1] is 600 nM.

As for `Cc1cc(Nc2nccn3c(-c4ccc(OCC#N)c(F)c4Cl)cnc23)ccc1C(=O)N1CCN(C(=O)NC[C@@H](C)N)CC1` [Example 164, N-[(2R)-2-aminopropyl]-4-[4-[[3-[2-chloro-4-(cyanomethoxy)-3-fluoro-phenyl]imidazo[1,2-a]pyrazin-8-yl]amino]-2-methyl-benzoyl]piperazine-1-carboxamide formate], under setting [2], the IC90 amounted to 71 nM.

For the molecule `CNCCN(C)C(=O)C1CCN(C(=O)c2ccc(Nc3nccn4c(-c5ccc(OC)c(F)c5)cnc34)cc2C)CC1` [Example 391, 1-[4-[[3-(3-fluoro-4-methoxyphenyl)imidazo[1,2-a]pyrazin-8-yl]amino]-2-methylbenzoyl]-N-methyl-N-[2-(methylamino)ethyl]piperidine-4-carboxamide; hydrochloride], the IC90 under setting [1] was determined as 340 nM.

For the molecule `Cc1cc(Nc2nccn3c(-c4ccc(OCc5cccnc5)c(F)c4F)cnc23)ccc1C(=O)N1CCC(CN)CC1` [Example 124, [4-(aminomethyl)-1-piperidyl]-[4-[[3-[2,3-difluoro-4-(3-pyridylmethoxy)phenyl]imidazo[1,2-a]pyrazin-8-yl]amino]-2-methyl-phenyl]methanone formate], the IC90 under setting [2] is 900 nM.
